Measurements as given in ChEMBL document CHEMBL1833795, “Discovery of potent, metabolically stable purine CRF-1 antagonists with differentiated binding kinetic profiles” (Bioorg Med Chem Lett, 2011).

Legend:
[1] = biological target: T1, Corticotropin-releasing factor receptor 1 (Homo sapiens, UniProt P34998); assay: Antagonist activity at recombinant human CRF1 receptor expressed in CHO cells assessed as inhibition of CRF-induced cAMP formation; assay type: functional, cell-based
T1 sequence (P34998 whole entry): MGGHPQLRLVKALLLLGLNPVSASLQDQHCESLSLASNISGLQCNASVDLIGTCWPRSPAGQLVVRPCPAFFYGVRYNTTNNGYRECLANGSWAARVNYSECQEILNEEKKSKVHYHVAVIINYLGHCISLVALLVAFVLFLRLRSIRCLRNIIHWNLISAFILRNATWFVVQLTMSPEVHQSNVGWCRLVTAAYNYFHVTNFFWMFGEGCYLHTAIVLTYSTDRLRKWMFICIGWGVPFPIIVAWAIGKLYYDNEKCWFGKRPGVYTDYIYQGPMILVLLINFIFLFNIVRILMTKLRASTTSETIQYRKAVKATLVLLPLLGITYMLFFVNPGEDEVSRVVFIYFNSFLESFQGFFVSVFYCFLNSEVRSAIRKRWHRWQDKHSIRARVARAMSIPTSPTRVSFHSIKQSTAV

Liver microsomes [2] = assay: Intrinsic clearance in rat liver microsomes assessed per mg of protein; assay type: ADME, Microsome
Liver microsomes [3] = assay: Intrinsic clearance in human liver microsomes assessed per mg of protein; assay type: ADME, Microsome
[4] = biological target: T2, Corticotropin-releasing factor receptor 1 (Homo sapiens) (UniProt P34998); details: CHO
T2 sequence (whole entry): T1 sequence (P34998 whole entry)
Description: Antagonist activity at recombinant human CRF1 receptor expressed in CHO cells assessed as dissociation half life

[5] = biological target: T1, Corticotropin-releasing factor receptor 1; assay: Binding affinity to recombinant human CRF1 receptor expressed in CHO cells; assay type: cell-based
[6] = Volume of distribution at steady state in rat at 0.1 mg/kg; assay type: ADME, organism-based; set-up: dose 0.1 mg/kg; details: in vivo, read-out: Vdss
[7] = Half life in rat at 0.1 mg/kg; assay type: ADME, organism-based; set-up: dose 0.1 mg/kg; details: in vivo
[8] = Clearance in rat at 0.1 mg/kg; assay type: ADME, organism-based; set-up: dose 0.1 mg/kg; details: in vivo
[9] = Oral bioavailability in rat at 8 mg/kg; assay type: ADME, organism-based; details: in vivo

Compound | Ki [1] [nM] | clearance (Liver microsomes [2]) [µL/min/mg] | clearance (Liver microsomes [3]) [µL/min/mg] | T1/2 [4] [h] | Kd [5] [nM] | Vd [6] [L/kg] | half-life [7] [h] | clearance [8] [mL/min/kg] | bioavailability [9] [%]
Cc1nc(NC(C2CC2)C2CC2)c2nc(C)n(-c3ccc(OC(F)(F)F)cc3)c2n1 | 9 | 27 | 17 |  |  |  |  |  | 
COc1ccc(-n2c(C)nc3c(NC(C4CC4)C4CC4)nc(C)nc32)c(Cl)c1 | 12 |  |  |  |  |  |  |  | 
Cc1nc(NC(C2CC2)C2CC2)c2nc(C)n(-c3ccc(F)cc3)c2n1 | 91 | < 8.5 | 15 |  |  |  |  |  | 
CCCN(CCC)c1cc(C)nc2c(-c3cnc(N(C)C)cc3C)c(C)nn12 |  |  |  | 12.8 |  |  |  |  | 
CCCN(CCOC)c1nc(C)nc2c1c(C)nn2-c1ccc(OC)cc1C |  | 23 | 172 | 0.3 | 14 |  |  |  | 
COc1ccc(-n2cnc3c(NC(C4CC4)C4CC4)nc(C)nc32)c(C)c1 | 47 | 48 | 21 |  |  |  |  |  | 
COc1ccc(-n2c(C)nc3c(NC(C4CC4)C4CC4)nc(C)nc32)cc1 | 19 | 20 | < 10 | 0.5 | 12 | 2 | 2.7 | 4 | 
Cc1nc(NC(C2CC2)C2CC2)c2nc(C)n(-c3ccc(OC(F)F)cc3)c2n1 | 5 | 17 | 15 | 1 | 3 | 2 | 11 | 3 | 
Cc1nc(NC(C2CC2)C2CC2)c2nc(C)n(-c3ccc(OC(F)F)cc3Cl)c2n1 | 0.373 | 51 | 18 | 6.2 | 0.373 | 4.5 | 6.4 | 8 | 
COc1ccc(-n2c(C)nc3c(NC(C4CC4)C4CC4)nc(C)nc32)c(C)c1 | 14 | 37 | 10 |  |  |  |  |  | 
Cc1nc(NC(C2CC2)C2CC2)c2nc(C)n(-c3ccc(S(C)(=O)=O)cc3)c2n1 | 140 |  | < 9 |  |  |  |  |  | 
COc1ccc(-n2ncc3c(NC(C4CC4)C4CC4)nc(C)nc32)c(C)c1 | 32 | 25 | < 11 |  |  |  |  |  | 
Cc1nc(NC(C2CC2)C2CC2)c2nc(C)n(-c3ccc(C#N)cc3)c2n1 | 62 | 22 | 16 |  |  |  |  |  | 
CCOc1ccc(-n2c(C)nc3c(NC(C4CC4)C4CC4)nc(C)nc32)cc1 | 20 | 29 | 16 |  |  |  |  |  | 
Cc1nc(NC(C2CC2)C2CC2)c2nc(C)n(-c3ccc(OC(F)F)cc3F)c2n1 | 7 |  |  |  |  |  |  |  | 
COc1ccc(-n2c(C3CCCO3)nc3c(NC(C4CC4)C4CC4)nc(C)nc32)cc1 (racemic) | 867 |  |  |  |  |  |  |  | 
COc1ccc(-n2c(C3CC(F)(F)C3)nc3c(NC(C4CC4)C4CC4)nc(C)nc32)cc1 | 261 |  |  |  |  |  |  |  | 
COc1cc(OC(F)F)ccc1-n1c(C)nc2c(NC(C3CC3)C3CC3)nc(C)nc21 | 0.291 | 38 | 19 | 10.7 | 0.291 | 8.2 | 10 | 9 | 52
COc1ccc(-n2c(CC(C)C)nc3c(NC(C4CC4)C4CC4)nc(C)nc32)cc1 | 607 |  |  |  |  |  |  |  | 
Cc1nc(NC(C2CC2)C2CC2)c2nc(C)n(-c3ccc(Cl)cc3)c2n1 | 11 | < 8.5 | 28 |  |  |  |  |  | 
COc1ccc(-n2c(CC3CC3)nc3c(NC(C4CC4)C4CC4)nc(C)nc32)cc1 | 308 |  |  |  |  |  |  |  | 
CCC(CC)Nc1cc(C)nc2c(-c3ccc(OC)cc3C)c(C)nn12 | 1.5 |  |  | 5.5 | 0.279 |  |  |  | 
COCc1nc2c(NC(C3CC3)C3CC3)nc(C)nc2n1-c1ccc(OC)cc1 | 157 |  |  |  |  |  |  |  | 
